Test results reported in patent publication US9499614B2, “Methods for modulating protein glycosylation profiles of recombinant protein therapeutics using monosaccharides and oligosaccharides” (AbbVie, Inc., priority 2013, dated 2016).

Experiments:
Assay type in all cases: cell-based, Chinese Hamster
Cell Line 2 [1] = assay: Shake flask semi-fedbatch culture of Cell Line 2, cell culture performance (Example 1); conditions: 7 mM
Description: (§1) Two recombinant Chinese Hamster Ovary (CHO) cell lines expressing two different humanized monoclonal antibodies (Antibody 1, Antibody 2) were evaluated in two different culture vessels (shaker flasks and laboratory scale bioreactors). Both cell lines were of CHO DUX-B11 origin based on a dhfr (dihydrofolate reductase) expression system. Both cell lines were cultured in the same chemically defined basal media (CDBM), with Cell Line 1 also utilizing a chemically-defined feed media (CDFM). Each of the respective media were supplemented with selected monosaccharides and oligosaccharides to evaluate their potential impact on the resulting N-glycan oligosaccharide profile. In preparing the cultures, the cell lines were serially expanded through separate seed train inoculums to generate enough cells for inoculation.
Viable cell density (VCD) and cell viability values were measured through trypan blue exclusion via Cedex automated cell counters (Roche Applied Science, Indianapolis, Ind.), glucose and lactate values were measured with a ABL-805 (Radiometer Medical, Denmark) blood gas analyzer. Offline pH, dissolved oxygen (DO), and pCO2 measurements were performed with a ABL-805 (Radiometer Medical, Denmark) blood gas analyzer. Osmolality was measured on a Multi-Osmette 2430 osmometer (Precision Systems, Natick, Mass.).
Antibody titers were measured from crude cell culture harvests on a Poros A™ (Life Technologies, Carlsbad, Calif.) affinity column using an Agilent (Santa Clara, Calif.) 1200 Series HPLC, or equivalent, operating with a low pH, step elution gradient with detection at 280 nm. Absolute concentrations were assigned with respect to reference standard calibration curves.
Cell Line 2 was evaluated in shake flask culture in semi-fedbatch mode. Sucrose was supplemented into the basal media at various concentrations to evaluate the resulting impact on cell culture performance, as well as the protein glycosylation profile. […] There was however, a very significant impact on the protein glycosylation profiles of harvest samples across all sucrose concentrations evaluated (FIG. 12). […]

Cell Line 2 [2] = assay: N-glycan oligosaccharide profiling, Cell Line 2 shake flasks (Example 1); conditions: 30 mM supplement vs control
Description: as §1
(§2) Purified antibodies subjected to additional analytical characterization were purified using MabSelect™ Protein A (GE Healthcare, Piscataway, N.J.) using a low pH, step elution gradient, followed by buffer exchange using Corning Lifesciences (Tewksbury, Mass.) Spin Concentrator X UF columns according to the manufacturers' recommended procedures.
(§3) Approximately 200 μg of Protein A purified samples from Cell Lines 1 and 2 were treated with N-glycanase at 37° C. overnight to remove the N-glycans from the protein. The protein was precipitated and the supernatant was taken for subsequent chemical derivatization of the reducing end of the released glycans with 2-aminobenzamide (2-AB) dye. Following the derivatization step, the excess label was removed using clean up cartridges and the samples were analyzed using normal phase HPLC with fluorescent detection. Mobile phase A was 100% acetonitrile and mobile phase B was 50 mM ammonium formate pH 4.4. The glycans were eluted from a polyamide column (Prozyme, Hayward, Calif.) using a shallow gradient. The labeled glycans were detected using a fluorescence detector with an excitation wavelength of 330 nm and an emission wavelength of 420 nm.
Cell Line 2 was evaluated in shake flask culture in semi-fedbatch mode. Sucrose was supplemented into the basal media at various concentrations to evaluate the resulting impact on cell culture performance, as well as the protein glycosylation profile. On average, 7 mM, 15 mM, and 30 mM sucrose all nominally impacted overall cell growth, with only slight drops in peak viable cell density (1×10^6-2×10^6 cells/mL) as compared to the unsupplemented control. […] There was however, a very significant impact on the protein glycosylation profiles of harvest samples across all sucrose concentrations evaluated (FIG. 12). A concentration-dependent modulation of protein glycosylation was observed that was consistent with the results obtained for Cell Line 1.

Cell Line 3 = assay: N-glycan oligosaccharide profiling, Cell Line 3 shake flasks (Example 2); conditions: 30 mM supplement vs control
Description: Two recombinant Chinese Hamster Ovary (CHO) cell lines expressing two different recombinant glycoproteins were evaluated in two different cultures vessels (shaker flasks and 3 L laboratory scale bioreactors). Cell Line 1 expressed Antibody 1, Cell Line 2 expressed Dual Variable Domain Immunoglobulin 1 (DVD 1) and Cell Line 3 expressed Antibody 2. Antibodies 1 and 2 are IgG1 proteins, and DVD 1 is an immunoglobulin with two variable domains as documented previously (Wu C. et al., (2007) Nat. Biotechnol 25(11):1290-1297). All cell lines were of CHO DUX-B11 origin based on a dhfr (dihydrofolate reductase) expression system. All cell lines were cultured in the same chemically defined basal media. Cell lines 1 and 2 were fed with the same chemically-defined feed media, but Cell Line 1 was fed media that was formulated at a 50% higher concentration. Each of the respective media were supplemented with either sucrose or tagatose to evaluate their potential impact on the resulting N-glycan oligosaccharide profile. All sugars were purchased from Sigma-Aldrich (St. Louis, Mo.). In preparation of the cultures, the cell lines were serially expanded through separate seed train inoculums to generate enough cells for inoculation.
as §2, §3
Cell Line 3 was evaluated in shake flask culture in chemically defined media supplemented with 7, 15, and 30 mM sucrose. There was a significant increase in overall mannosylation levels, and thus a significant decrease in overall fucosylation levels. […] This cumulative increase of 19% in overall mannosylated N-glycans was accompanied by a 27% drop in NGA2F species, the majority of which was precluded from being formed due to the abrogation of the N-glycan biosynthetic reaction shown in FIG. 2. […] Antibody 3, purified from the sucrose supplemented cell cultures, was tested in a Cr-51 release assay to evaluate effector function, specifically ADCC activity. This was performed to verify that the lower level of fucosylated N-glycans linked to Antibody 3 would facilitate an increase in ADCC activity. Antibodies purified from the 30 mM sucrose supplemented culture had the highest levels of high mannose N-glycans, and lowest levels of fucosylated N-glycans.

Cell Line 1 = assay: N-glycan oligosaccharide profiling, Cell Line 1 in 3 L laboratory-scale bioreactors; conditions: 50 mM supplement vs control
Description: as §2, §3
3 L scale-down model bioreactors were utilized to verify the impact of select sugars on the resulting protein glycosylation profiles. The concentration of the sucrose and tagatose was chosen to minimize any potential adverse impact on cell growth and productivity, but still facilitate a measurable modulation of the glycosylation profile. Cell culture process performance indicators were monitored and measured throughout the respective cultures. Viable cell density, cell viability, lactate, pCO2, osmolality, harvest titer, and harvest N-glycan oligosaccharide data were measured and reported.
3 L scale laboratory bioreactors were utilized to verify the impact of sucrose, tagatose, or fructose on protein glycosylation profiles. Concentrations of the sugars were chosen to minimize any potential adverse impacts on cell growth and productivity, but still facilitate a measurable impact on the glycoform profile. Cell culture process performance indicators were monitored and measured throughout the study. Viable cell density, cell viability, lactate, pCO2, osmolality, harvest titer, and harvest N-glycan oligosaccharide data was measured and reported.

Compound	Man 5 increase (Cell Line 1)	Man 6 increase (Cell Line 1)	Man 7 increase (Cell Line 1)	decrease in NA1F (Cell Line 1)	decrease in NGA2F species (Cell Line 1)	increase in NA1F-GlcNAc (Cell Line 1)	increase in NGA2F-GlcNAc (Cell Line 1)	increase in overall mannosylation (Cell Line 1)	overall decrease in fucosylation (Cell Line 1)	also measured
OC[C@H]1O[C@@](CO)(O[C@H]2O[C@H](CO)[C@@H](O)[C@H](O)[C@H]2O)[C@@H](O)[C@@H]1O [sucrose]	16%	5%	3%	3%	29%	1%	7%	24%	24%	cell viability (Cell Line 2 [1]; 15 mM and 30 mM): not significantly different from each other; harvest titer (Cell Line 2 [1]; 15 mM and 30 mM): not significantly different from each other; drop in peak viable cell density (Cell Line 2 [1]; 15 mM and 30 mM vs control): 1×10^6-2×10^6 cells/mL; cumulative increase in overall mannosylated N-glycans (Cell Line 2 [2]): 19%; drop in NGA2F species (Cell Line 2 [2]): 27%; drop in overall fucosylation (Cell Line 2 [2]): 19%; increase in Man 5 species (Cell Line 2 [2]): ≤ 17%; increase in Man 6 species (Cell Line 2 [2]): 1%; increase in Man 7 species (Cell Line 2 [2]): 1%; cumulative increase in overall mannosylated N-glycans (Cell Line 3): 19%; decrease in overall fucosylation level (Cell Line 3): 19%; drop in NGA2F species (Cell Line 3): 27%; increase in Man 5 species (Cell Line 3): 17%; increase in Man 6 species (Cell Line 3): 1%; increase in Man 7 species (Cell Line 3): 1%; increase in NGA2F-GlcNAc species (Cell Line 3): 8%
O=C(CO)[C@@H](O)[C@@H](O)[C@H](O)CO [tagatose]	7%	2%	1%	3%	15%	1%	6%	10%	11%	
